According to a melting point compilation (Tetko et al.; mined from patent text by program, amines drawn as free bases though some values may be those of a salt):

Compound	melting point [°C]
NC(=O)C1=NN(c2cccc(COCC(F)(F)C(F)(F)F)c2)C(c2ccccc2)N1 (centres undefined)	146 to 148
C=CC(=O)Nc1ccc(C(=O)C[N+](=O)[O-])c(Cl)c1	140 to 144
Cc1ccc([N+](=O)[O-])c(C#N)c1	90 to 91
Cc1nc(N2CCN(CC3CC3)C2=O)sc1C(=O)NCc1ccccc1	142 to 143
CCP(=O)(CC)C(O)[C@H](CC1CCCCC1)NC(=O)[C@H](CC(C)C)NC(=O)[C@H](Cc1ccccc1)NC(=O)C1CCCC1 (some centres undefined)	170 to 171
CS(=O)(=O)NC(CCC(O)(Cn1cncn1)c1ccc(F)cc1F)C(=O)O (centres undefined)	165 to 173
O=C1C(O)=C(c2ccccc2)C(=O)C(O)=C1/C=C/c1ccccc1	259 to 260
CCOC(=O)CCNc1nc2c(C)cc(C)cc2n1Cc1nc(C)ccc1O	180
COc1ccc(-c2nc3n(c2-c2ccc(OC)cc2)C(F)C(F)(F)S3)cc1 (centres undefined)	160 to 162
CCCCCCCCCCCCOC(=O)c1cc(N)ccc1[N+](=O)[O-]	58 to 59
Cc1csc(C2=CCN(CCCC(O)c3ccc(F)cc3)CC2)n1 (centres undefined)	89 to 90.5
Cc1cccc(-c2nc3ccc(N(C)C)nn3c2-c2ccnc(NC3CCCCC3)c2)c1	191 to 192
Cn1c2ccccc2c(=O)c2c(-c3ccccc3NC(=O)C(C)(C)C)cccc21	160 to 162
CN(C)S(=O)(=O)c1cc(S(=O)(=O)N(C)C)c(C(Cl)=C(Cl)Cl)cc1N	238 to 239
COc1ccc2c(c1)-c1nn(CCCl)c3ccc([N+](=O)[O-])c(c13)N2	264 to 265
CC(C)(C)c1cc(CCC(=O)O)n(Cc2ccc(C(F)(F)F)cc2Cl)n1	128 to 129
CC1(C(=O)N2CCC(n3c(=O)[nH]c4ccccc43)CC2)OCc2ccccc2-n2cccc21 (centres undefined)	208 to 210
COc1cc(NC(=O)N(O)C(C)C)cc(OC)c1OC	140 to 141
CCC(C)N(C)C(=O)c1cc(-c2ccccc2F)c2ccccc2n1 (centres undefined)	86
CCCC(OCCc1ccc(-c2ccc(Cl)cc2)cc1)C(=O)O (centres undefined)	89 to 90
COC(=O)C1Cc2c([nH]c3ccccc23)C(c2ccccc2)N1 (centres undefined)	217 to 218
CC(C)(C)[S@](=O)N1CCC[C@H]1c1cccs1	125 to 130
Cc1cc(NS(=O)(=O)c2ccc(S(C)(=O)=O)cc2)cc(C)c1S(=O)(=O)C[N+](=O)[O-]	192 to 194
CN1CC(N2CCc3ccccc3C2)ON=C1CC(c1ccccc1)c1ccccc1 (centres undefined)	163
CCCCNS(=O)(=O)C[C@@H](O)C(O)[C@@H](CC1CCCCC1)NC(=O)[C@H](CC(C)C)NC(=O)CCc1ccccc1 (relative stereo)	63 to 73

Compound	melting point [°C]
CCC(CO)c1ccc(N=C2SCCS2)cc1 (centres undefined)	98.5 to 100
c1ccc(COC2COC(c3ccco3)OC2)cc1 (centres undefined)	50 to 52
COc1c([N+](=O)[O-])ncn1C	140 to 141
CCOC(=O)c1ccc(S(=O)(=O)Oc2c(-c3ccccc3)cc(C(=O)c3ccccc3)cc2-c2ccccc2)cc1O	75 to 85
CCCCOCCOc1ccc(-c2ccc3c(c2)C=C(C(=O)Nc2ccc(SCc4nncn4CCC)c(C(F)(F)F)c2)CCN3CC(C)C)cc1	131 to 133
Cc1ccc(Cl)cc1C1CC(=O)c2c(C)ccnc2C1 (centres undefined)	125 to 127
O=[N+]([O-])c1ccc(NCCS(=O)(=O)NCCCOc2cccc(CN3CCCCC3)c2)cc1	140 to 142
Cc1cccc(N(C)C(=O)c2cc(=O)n(C)c3ccc(C(O)(c4ccc(Cl)cc4)c4cncn4C)cc23)c1 (centres undefined)	185
CCSc1c(C=NOC)c(=O)n(C)c(=O)n1C	74 to 75
S=C1CN=C(c2ccccc2Cl)c2cc(Cl)ccc2N1	251 to 253
CCOC(=S)C(C)Cc1ccc(OCC(=O)O)cc1 (centres undefined)	77 to 78
CNc1ccc(N2C(=O)c3ccccc3C2=O)c(C)c1	159 to 161
COC(CN1C(=O)CN=C(c2ccccc2)c2cc(Cl)ccc21)OC	117 to 119
C=CCCCCCCOc1ccc(C(CC(C(=O)OCC)C(=O)OCC)NC(C)=O)cc1 (centres undefined)	50 to 53
CC1CC(=Cc2cc(C(C)(C)C)c(O)c(C(C)(C)C)c2)C(=O)N1C(N)=O (centres undefined)	195 to 196
C#Cc1ccc2c(c1)CCC2=O	157
Oc1cccc2c1c1cccc(Cl)c1n2Cc1ccccc1	163 to 166
Nc1nc2ccccc2c2c1ncn2CCOCCCc1cncnc1	159 to 161
CC(C)(C)OC(=O)N1C(=O)[C@H](O)[C@@H]1C1CCCCC1	121 to 122
O=c1[nH]c(=O)n(C2CC(F)C(CO)O2)cc1C(Cl)=CI (centres undefined)	87
Fc1ccc2c(c1)CCc1cccnc1C2=C1CCNCC1	134
CN(C)N=Cc1cc2c(cn1)[nH]c1ccccc12	203 to 206
CC(C)(C)C(NC(=O)c1cccc(Br)c1)Nc1c(Nc2cccnc2)c(=O)c1=O (centres undefined)	244 to 245
O=C(Nc1ccc(OC(F)(F)F)cc1)N[C@H]1CC[C@H](O)CC1	224 to 225
CC(=O)c1ccc(Nc2cccc(-c3cnc(N)nc3)c2)c(N)c1	228 to 230

Compound	melting point [°C]
CCn1nc(OCCCc2ccc(OC(C)C)cc2OCc2ccc(C(F)(F)F)cc2)cc1CCC(=O)O	75 to 76
N#CC1(c2nnn[nH]2)CCCC1	92 to 94
CC(C)(C)OC(=O)C(ON1C(=O)c2ccccc2C1=O)c1ccccc1 (centres undefined)	121 to 122
O=C(O)CCCCCCCCCCOc1ccccc1	76 to 78
CC1(C)CC(=O)c2cc3c(cc2O1)OCO3	61 to 62
CCc1ccc(Nc2nc3cc(NC(=O)c4ccc(OC)c(OC)c4)ccc3o2)cc1	> 250
COC(=O)c1ccc(CCc2ccc(OC)cc2)nc1	82
CCOC(=O)c1cn(C)c2cnc3cc(N4CCCC(C)(C)C4)c(F)cc3c2c1=O	198 to 200
Cc1cccc(-c2nc(-c3ccc(S(C)(=O)=O)cc3)sc2-c2ccnc(S(=O)(=O)c3ccccc3)c2)c1	126 to 128
CCCCCCCCCCCCCCOc1cc(OCCCCCCc2cccc(OCc3ccccc3)c2OCc2ccccc2)cc(C(=O)OC)c1	56 to 58
Nc1ncnc2c1ncn2C=CC=O	258 to 260
CCNC(=O)c1ccc(-c2ccc3c(c2)C(Nc2ccc(Cl)cc2)CC(C)N3C(C)=O)cc1 (centres undefined)	134
COc1ccc(-c2ccc(C(=O)Nc3ccc4cc(CN5CCCCC5)cnc4c3C)c(F)c2)cc1	191 to 192
Cn1cc(C(=O)NCc2ccc(Cl)cc2)c(=O)c2cc(CN3CCOCC3)cc(I)c21	156 to 158
CCC(C=CC(C)C1CCC2C3CC=C4CC(OC(=O)NCCO)CCC4(C)C3CCC12C)C(C)C (centres undefined)	172 to 173
Cc1nc2cc3c(cc2c(=O)n1COC(=O)C(C)(C)C)C(Br)CC3 (centres undefined)	98
COc1ccc(CCCC(O)COc2ccc(OCc3ncc[nH]3)cc2)cc1OC (centres undefined)	129 to 130
O=C1c2ccccc2C(=O)c2sc(-c3cc(Br)co3)nc21	> 260
CCOC(=O)C1=C(N)Nc2ccnc(OC(C)C)c2C1c1ccccc1C(F)(F)F (centres undefined)	173 to 175
CC12CCC3C(CCC4=CC(=O)CCC43C=O)C1CCC2O (centres undefined)	125 to 127
COc1cccc(N2CCN(C(=O)c3ccccc3C(c3ccc(O)cc3)c3ccc(O)cc3)CC2)c1	229 to 234
O=C(Nc1cn(C2CCCCO2)nc1C(=O)NCCO)c1ccccn1 (centres undefined)	214 to 215
CC1(C)Cc2cccc(OCCCBr)c2O1	54 to 56
CCCc1c(OCCCOc2ccc(CC(=O)O)cc2)ccc(C(C)=O)c1O	106 to 108
Cc1c[nH]c(Cc2ccccc2[N+](=O)[O-])n1	125 to 128

Compound	melting point [°C]
Cc1ccc2cccc(OCc3c(Cl)ccc(S(=O)(=O)NCc4ccccc4)c3Cl)c2n1	140 to 142
O=CNc1cccc2c1SC1=NCCN12	217
O=C(Nc1ccc2c(c1)OCCO2)c1ccc(-c2cccs2)cc1	192 to 195
O=c1[nH]ncc2[nH]c(-c3ccc(OC(F)F)c(OC4CC4)c3)c(-c3ccccc3)c12	138 to 143
CC(=O)S[C@H]1NC(=O)[C@H]1NC(=O)Cc1ccccc1	110 to 111
COc1ccc(CNc2nc(Cl)ncc2C(=O)c2cc(OC)c(OC)c(OC)c2)cc1Cl	165
COC(=O)c1ccccc1OCC(O)CNCCNC(=O)C(C)C (centres undefined)	128 to 129
CC[C@@H]1COC(=O)N1c1nc(-c2ccc(C#N)cc2)cs1	153 to 157
CCOC(=O)c1cnc2c(OCC)csc2c1O	223 to 224
Cc1onc(-c2ccc(Br)cc2)c1-c1ccc(S(N)(=O)=O)cc1	152 to 153
CCOC(=O)c1cnc(-c2ccc(Cl)cc2)s1	144 to 145
CC(=O)Nc1nc(-c2ccco2)c(C(=O)c2ccccn2)s1	216 to 217
CCCC(=O)NCCc1c[nH]c2ccc(OCCN3CCCCC3)cc12	113 to 114
FC(F)(F)c1nc2cnc3ccccc3c2s1	113 to 114
COc1cc2cc(CO)c(CO)c(-c3ccnc(-n4c(=O)cc(C(=O)O)c5ccccc54)c3)c2cc1OC	> 250
O=C(c1ccc2[nH]ccc2c1)N1CCN(CCc2ccccc2)CC1	105 to 108
COC(=O)NCc1c[nH]c(=S)n1[C@H]1CCc2c(F)cc(F)cc2C1	220 to 222
CCCOc1cc(OCCC)c2c(C)c(CCO)c(=O)oc2c1	106 to 108
CN1C[C@H]2c3ccccc3[C@H](c3ccccc3)CN2C(=O)C1=O (relative stereo)	193 to 194
COc1cc(Cc2cnc(NC(C)=N)nc2N)cc(OC)c1OC	207
Cc1cc2ccccc2n2c(S)nnc12	268
Cc1nnc(Cl)c2cc(O)ccc12	> 260
Cc1cc(NC(=O)Nc2ccc(N(CCCl)CCCl)cc2)cc(Nc2c3ccccc3nc3ccccc23)c1	280 to 285
OC(CCSc1cccc2ccccc12)CCc1cccnc1 (centres undefined)	58 to 59
